Assay in all cases: NCI tumour cell line growth inhibition, 48 h
Assay [1] deals with RPMI-8226 leukemia.
In assay [2] the test system is SF-268 CNS.
For assay [3], the system named is U251 CNS.
In assay [4] the test system is DU-145 prostate.
The subject of assay [5] is MDA-MB-231 breast.
In assay [6] the test system is A549 NSCLC.
For assay [7], the system named is MALME-3M melanoma.
Assay [8] has as its system SNB-19 CNS.
Assay [9] has as its system SF-295 CNS.
The subject of assay [10] is OVCAR-4 ovarian.

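Five concentrations, 48 hours, 96-well plates. The concentration for 50% growth inhibition is given as GI50. TGI: concentration producing complete growth inhibition.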

On to `COc1cc(Br)c(CC2C3=C(CCN2C(=O)C2CCC2)CC(=O)CC3)cc1O` (centres undefined), for which the TGI in [1], in [2], in assay [3], in assay [4], in [5] and in assay [6] was more than 100 µM each time. Further, the TGI in [7] was 92.7 µM; in assay [8], more than 100 µM; in [9] it was more than 100 µM.

In the case of `O=C1C(=Cc2ccc(Cl)c(Cl)c2)C([O-])=C([P+](c2ccccc2)(c2ccccc2)c2ccccc2)C([O-])=C1[P+](c1ccccc1)(c1ccccc1)c1ccccc1`, the TGI was 9.23 µM in assay [1]; 3.94 µM in [2]; 6.29 µM in assay [3]; 28.1 µM in assay [4]; 8.78 µM in assay [5]; 10.4 µM in assay [10]. Besides, the TGI stood at 10.4 µM in assay [6], 4.9 µM in assay [7], 6.35 µM in [8] and 6.74 µM in assay [9].

`NC1CC=C(COC(=O)C(O)(c2ccccc2)C2CC2)CC1` (centres undefined): the TGI in assay [1], in assay [2], in assay [3], in assay [4], in assay [5] and in [6] was more than 100 µM throughout. The TGI in assay [7], in assay [8] and in assay [9] was more than 100 µM throughout.

For `CNc1ncnc2c1cnn2Cc1cn(COCC(O)CO)nn1` (centres undefined), the TGI in assay [1] is more than 100 µM; in [2], 22 µM; in assay [3], more than 100 µM; in [4], more than 100 µM; in assay [5], more than 100 µM; in assay [10] it was more than 100 µM. In addition, the TGI in assay [6], in [8] and in [9] was more than 100 µM each time.

Consider `CC(=O)Nc1ccccc1NC1CC(C)N(c2ccccc2)N1C(C)=O` (centres undefined), for which the TGI in assay [1], in [2], in assay [4], in [5], in assay [10] and in assay [6] was more than 10 µM throughout. In addition, the TGI in assay [7] and in [9] was more than 10 µM in each case.

Consider `CC(C)(C)OC(=O)NCC(=O)N1CCN(C(=O)CNC(=O)OC(C)(C)C)CC1`, for which the TGI is more than 100 µM in assay [1]; 39.7 µM in [2]; more than 100 µM in assay [3]; more than 100 µM in assay [4]; more than 100 µM in [5]; more than 100 µM in [10]. The TGI in [6], in [8] and in assay [9] was more than 100 µM throughout.

On to `COc1ccc(-c2nn(-c3ccc(NC(=O)Nc4ccc(Cl)c(C(F)(F)F)c4)cc3)cc2-c2ccncc2)cc1Cl`, for which the GI50 in assay [1] was 0.388 µM; in assay [2], 2.8 µM; in assay [3], 0.928 µM; in assay [4] it was 3.07 µM; in assay [5], 1.2 µM; in [10], 1.98 µM. Besides, the GI50 in assay [6] was 1.2 µM; in assay [7], 1.59 µM; in assay [8], 2.35 µM. In addition, the TGI in [1] was 1.92 µM; in assay [2], 19.5 µM; in assay [3], 2.59 µM; in [4], 20.6 µM; in assay [5], 2.67 µM; in [10] it was 21.9 µM. Also, the TGI in assay [6] is more than 100 µM; in [7], 5.09 µM; in assay [8], 11 µM.

On to `CSc1scc2c1/C(=N/NC(N)=O)CCC2`, for which the TGI in assay [1], in assay [2], in assay [3], in assay [4], in assay [5] and in [10] was more than 100 µM throughout. For the same compound, the TGI in assay [6], in [8] and in assay [9] was more than 100 µM each time.

Consider `NC(N)=NCCCC(NC(=O)OCCCCn1ccc(N)nc1=O)C(=O)O` (centres undefined), for which the TGI in [1], in assay [2], in assay [3], in [4], in assay [5] and in assay [10] was more than 100 µM throughout. Moreover, the TGI in assay [6], in assay [8] and in assay [9] was more than 100 µM in each case.

On to `C[N+](C)(CCNC(=O)c1cccc2cc3ccccc3nc12)Cc1ccc([N+](=O)[O-])s1`, for which the TGI in [1], in [2], in assay [3], in assay [4], in assay [5] and in assay [6] was more than 25 µM in each case. Moreover, the TGI in [7] and in assay [9] was more than 25 µM throughout.

Turning to `[N-]=[N+]=C(C(=O)N1CCCC1=O)S(=O)(=O)c1ccccc1`, the TGI in assay [1], in assay [2], in [3], in [4], in assay [5] and in assay [6] was more than 100 µM each time. The TGI in [7], in [8] and in assay [9] was more than 100 µM throughout.

On to `COc1cc(CS(=O)c2ccc(O)cc2)cc(OC)c1OC` (centres undefined), for which the TGI in assay [1], in [2], in assay [3], in assay [4], in assay [5] and in [6] was more than 100 µM in each case. Also, the TGI in assay [7], in [8] and in assay [9] was more than 100 µM each time.

As to `CCOC(=O)N1CCC(=C2c3ccc(Cl)cc3CCc3cccnc32)CC1`, the TGI is 32.9 µM in assay [1]; 26.9 µM in assay [4]; 42.5 µM in assay [5]; 17.1 µM in assay [10]; more than 100 µM in [6]; 24.7 µM in assay [7].

With `CCC[C@@H]1C(=O)N=C(N)N1C(=O)OCc1ccccc1`, the TGI in [1], in assay [2], in assay [3], in [4], in assay [5] and in assay [10] was more than 100 µM each time. The TGI in assay [7], in assay [8] and in [9] was more than 100 µM in each case.

As to `C=C(c1ccccc1)c1ccccc1-c1cc(-c2ccccc2)cc(-c2ccccc2)n1`, the TGI in assay [1], in [2], in [3], in [4], in assay [5] and in [6] was more than 100 µM throughout. In addition, the TGI in assay [7], in assay [8] and in assay [9] was more than 100 µM throughout.

On to `C=C1CN(C2=NCCO2)C1`, for which the TGI in [1], in assay [2], in [4], in assay [5], in assay [10] and in assay [6] was more than 100 µM throughout. Besides, the TGI in assay [7], in assay [8] and in assay [9] was more than 100 µM throughout.

For the compound `O=C(O)CCC(NC(=O)c1ccc(Nc2nc3cc(C(F)(F)F)ccc3nc2C(=O)O)cc1)C(=O)O` (centres undefined), the TGI in assay [1], in [2], in [3], in assay [4], in [5] and in [6] was more than 100 µM throughout. The TGI in assay [7], in [8] and in assay [9] was more than 100 µM in each case.

Take `COc1ccc(C2=NN=C3C(c4ccccc4)=Nc4ccccc4N3C2)cc1`: the TGI in assay [1] was more than 100 µM; in assay [2], more than 100 µM; in assay [3], more than 100 µM; in assay [4], 70.7 µM; in assay [5] it was more than 100 µM; in assay [10], 45.6 µM. For the same compound, the TGI in assay [6] was more than 100 µM; in assay [7], 66.3 µM; in assay [8] it was more than 100 µM.

For `Cc1cc(S(=O)(=O)/N=C(/NN)NNc2cccc(C(F)(F)F)n2)c(S)cc1Cl`, the TGI in [1] is more than 100 µM; in assay [2], 57.4 µM; in [3], 33.6 µM; in assay [4], 34.1 µM; in [5] it was more than 100 µM; in [10], 36 µM. Moreover, the TGI in assay [6] came out at 44.1 µM; in assay [7], 42.1 µM; in assay [8] it was 68.8 µM.

As to `Cc1c(C(=O)O)n2cnnc2c2ccccc12`, the TGI in assay [1], in assay [2], in assay [3], in assay [4], in assay [5] and in assay [10] was more than 100 µM in each case. The TGI in [6], in assay [8] and in assay [9] was more than 100 µM throughout.

As to `CCC(NC1=NCCO1)c1cccs1` (centres undefined), the TGI is more than 100 µM in assay [1]; 26.3 µM in assay [3]; 28.5 µM in assay [4]; 44.6 µM in [5]; 44.5 µM in assay [10]; 28.1 µM in [6]. The TGI in [7] is 25.7 µM; in assay [8] it was 29.8 µM; in [9], 28.4 µM.

For the origin of these results see PubChem BioAssay (NCI).
